One molecule from US8710068B2, “Method of treating cancer using a survivin inhibitor” (The Trustees Of The University Of Pennsylvania, priority 2009, dated 2014) can be followed below.

The target of one assay is T1, Sur-F86A (Homo sapiens, UniProt O15392, F86A).
T1 construct: made in house; host or cells: bacteria
The assay can be described thus: ITC binding to Survivin mutant F86A. The note with it: in words. Here is the method:
(§1) FIG. 5 illustrates an analysis of S12-Survivin binding with isothermal titration calorimetry (ITC). Single-site point mutagenesis was performed to create the Survivin mutants F86A and V89Y. The native and the mutant proteins were produced and purified from bacteria.
(§2) In order to examine the specificity of the binding, we generated point mutations on the Survivin protein at the site presumably targeted by S12. The two mutations were substitutions of phenylalanine 86 with alanine (F86A) and valine 89 with tyrosine (V89Y). These two altered sites are also adjacent to the interface involved in dimerization of the Survivin protein. Based on structural analyses, we predict that alterations of either of these two amino acid residues may abolish the binding of S12 without affecting the overall structure of the Survivin protein.

Another assay addresses T2, Sur-V89Y (Homo sapiens, UniProt O15392, V89Y).
T2 construct: made in house; host or cells: bacteria
The assay can be described thus: ITC binding to Survivin mutant V89Y. The note with it: in words. Here is the method:
as §1, §2

Assay [1] concerns AsPC1 pancreatic cancer cells. The assay can be described thus: MTT tumor cell proliferation assay, AsPC1. The assay is classed as cell-based, human. The following applies: AsPC1, 5, 10, 20, or 50 μg/ml for 48 hours. The protocol:
FIG. 3 illustrates the effect of S2 and its analogs on tumor cell proliferation. Cells were treated with DMSO or Survivin targeting molecules at the indicated concentration for 48 hours. The percentage of viable cells was evaluated by MTT assay. (A) AsPC1; (B) HeLa; (C) SKBR3; (D) DAOY.
FIG. 18 illustrates the effect of SBDO3, SN2, or SDC1 on tumor cell proliferation. (A) AsPC1 cells were treated with DMSO or the Survivin targeting molecules SBDO3 or SN2 at the indicated concentration for 48 hours. (B) SKBR3 cells were treated with DMSO or SDC1 for 48 hours. The percentage of viable cells was evaluated by MTT assay.
S2 and its analogs (S10, S11, S12, and S13) were tested for the ability to inhibit tumor cell proliferation by MTT assay. The AsPC1 pancreatic cancer cells were treated with DMSO, a control molecule SC2, or the Survivin-targeting compounds at the concentration of 5, 10, 20, or 50 μg/ml for 48 hours. The number of viable cells was evaluated by MTT.
SBDO3, SN2 and SDC1 were tested for the ability to inhibit tumor cell proliferation by MTT assay. The AsPC1 pancreatic cancer cells were treated with DMSO or the Survivin-targeting compounds at the concentration of 5, 10, 20, or 50 μg/ml for 48 hours. The number of viable cells was evaluated by MTT.

The test system of another assay is HCT116(p53+/+) cells. The assay can be described thus: MTT viability assay, HCT116(p53+/+). The note with it: 48 hours. The assay is classed as cell-based. The protocol: FIG. 4 illustrates the effects of S12 on proliferation of p53-positive and p53-negative cancer cells. (A) HCT116(p53+/+) or HCT116(p53−/−) cells were treated with DMSO or S12 at the indicated concentrations for 48 hours. The percentage of viable cells was evaluated by MTT assay.
Thus, inhibition of cell proliferation by S12 is independent of p53 status.
In general terms: Tetrazolium dyes change colour on reduction, which living cells bring about.

Assay [2] deals with HeLa cells. The assay can be described thus: Cell cycle analysis of DNA content by PI staining and FACS, HeLa. The note with it: HeLa, FACS DNA content. The assay is classed as cell-based, human. Here is the method:
FIG. 7 illustrates the effect of S2 or S12 on cell cycle progression. HeLa cells were treated with S2, S12, S10, S1 (control compound), or DMSO (control), propidium iodide (PI) staining and FACS analysis were performed to quantify the DNA content of cells.
FIG. 9 illustrates the effect of S12 on mitosis. (A) HeLa cells were treated with S12, S2 or DMSO for 15 hours. The cells were then fixed and subjected to immunostaining using antibodies specific for Aurora B (green) and Survivin (red). DNA was stained with DAPI. Chromosome misalignment is indicated with the arrowheads. (B) Percentage of S12-treated cells in mitosis, in metaphase, in anaphase/telophase, or with misaligned chromosomes. (C) Percentage of S2-treated cells in mitosis, in metaphase, in anaphase/telophase, or with misaligned chromosomes. (D) HeLa cells were treated with S12 (10 μg/ml) or DMSO (control) for 15 hours. Cells were examined by PI staining of DNA content by FACS analysis.
FIG. 17 illustrates (A) FACS analysis of DNA content of HeLa cells treated with SBDO3. Note the accumulation of cells at the G2/M stage. Cell death was also observed (sub-G1 population); (B) Immuno-fluorescence microscopy analysis of cell treated with SBDO3. Note that the microtubule bundles of the mitotic spindle are disorganized. The chromosomes are not aligned properly and cells cannot go through metaphase.
The candidate Survivin-targeting molecules identified by the virtual screen were examined for the ability to inhibit cell proliferation and mitosis. HeLa cells were treated with the compounds at various concentrations for 15 hours followed by examination of the DNA content by FACS analysis. […] The effects of S2 inflicted on cell proliferation and viability are consistent with the anticipated outcome caused by the ablation of Survivin functions. We have extended these studies to test a number of molecules that are structurally similar to S2, including S10, S11, S12 and S13. […] S12 affected cell proliferation and viability, consistent with the anticipated outcome caused by ablation of Survivin functions.
We analyzed distribution of cells in the different stages of the cell cycle by FACS. […] In addition, the inhibitory effect of SBDO3 is dose dependent (FIG. 17A).
We also conducted immuno-fluorescence studies on SBDO3 treated HeLa cells.

For assay [3], the system named is HeLa cells. The assay can be described thus: BrdU incorporation DNA synthesis assay (FACS), HeLa. The assay is classed as cell-based, human. The note with it: 4 hours treatment then one-hour BrdU. The protocol:
BrdU-labeled cells were analyzed by FACS. The percentage of BrdU-positive cells is indicated.
HeLa cells were treated with S12, aphidicolin, or DMSO (control) for 4 hours. BrdU was then added to the medium followed by an additional incubation of 1 hour. The amount of BrdU was examined by staining with anti-BrdU antibody and FACS analysis. The percentage of BrdU-positive cells is shown.
To establish the specificity of the biological activities of the Survivin targeting we examined whether the compounds affect DNA synthesis. HeLa cells were treated with Aphidicolin, S2 or DMSO for 4 hours, followed by one-hour incubation with BrdU. The cells were then collected, fixed and stained with FITC-labeled anti-BrdU antibody.
On the technique in general: Dividing cells build labelled thymidine or BrdU into new DNA.

T2 sequence (O15392 whole entry V89Y): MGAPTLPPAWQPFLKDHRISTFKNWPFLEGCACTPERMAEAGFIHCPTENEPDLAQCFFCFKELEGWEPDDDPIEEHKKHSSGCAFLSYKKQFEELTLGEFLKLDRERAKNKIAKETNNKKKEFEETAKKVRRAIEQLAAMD
T1 sequence (O15392 whole entry F86A): as the sequence (O15392 whole entry V89Y) above, with F86A, Y89V counted along it

With `O=C(CC1(O)C(=O)Nc2ccc(Br)cc21)c1ccc2c(c1)OCO2` (stereo not shown) [S12], the “binding to mutant Sur-F86A” value at Sur-F86A is “did not bind”. In addition, the “binding to mutant Sur-V89Y” value at Sur-V89Y was “did not bind”. Besides, the “inhibition of cell proliferation / cell viability” value in assay [1] was “can inhibit cell proliferation and reduce cell viability in a dose-dependent manner”. For the same molecule, in the assay on HCT116(p53+/+) cells, the “reduction of cell viability” value is recorded as “equally effective at reducing cell viability”. In addition, in the assay with HeLa cells [2] (15 hours), the “accumulation of cells in the G2/M stage” value is listed as “accumulation of cells in the G2/M stage”. Further, the “sub-G1 population (cell death)” value with HeLa cells [2] is listed as “increase of cells in the sub-G1 population”. For the same molecule, the “DNA synthesis (BrdU incorporation)” value in the assay on HeLa cells [3] is reported as “did not block DNA synthesis”.
